Experimental data published in PubChem BioAssay (NCI).
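The compound was tested at five concentrations on cells cultured in 96-well plates, with a 48-hour exposure period. At the GI50, growth is halved. At the TGI there is no net growth.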

Assays:
Experiment in all cases: DTP human tumour cell line panel, 48 h
A549 NSCLC = test system: A549 NSCLC
CCRF-CEM leukemia = test system: CCRF-CEM leukemia
HCC-2998 colon = test system: HCC-2998 colon
K-562 leukemia = test system: K-562 leukemia
SF-539 CNS = test system: SF-539 CNS
SK-OV-3 ovarian = test system: SK-OV-3 ovarian
SNB-19 CNS = test system: SNB-19 CNS
SNB-75 CNS = test system: SNB-75 CNS
SW-620 colon = test system: SW-620 colon
DU-145 prostate = test system: DU-145 prostate

Row | Compound | TGI (A549 NSCLC) [µM] | TGI (CCRF-CEM leukemia) [µM] | TGI (HCC-2998 colon) [µM] | TGI (K-562 leukemia) [µM] | TGI (SF-539 CNS) [µM] | TGI (SK-OV-3 ovarian) [µM] | TGI (SNB-19 CNS) [µM] | TGI (SNB-75 CNS) [µM] | TGI (SW-620 colon) [µM] | GI50 (A549 NSCLC) [µM] | GI50 (CCRF-CEM leukemia) [µM] | GI50 (DU-145 prostate) [µM] | TGI (DU-145 prostate) [µM] | GI50 (K-562 leukemia) [µM] | GI50 (SF-539 CNS) [µM] | GI50 (SK-OV-3 ovarian) [µM] | GI50 (SNB-19 CNS) [µM] | GI50 (SNB-75 CNS) [µM] | GI50 (SW-620 colon) [µM] | GI50 (HCC-2998 colon) [µM]
1 | S=C=NCCc1ccccc1 | 6.38 | 4.25 | 1.54 | > 64.1 | 0.532 | 3.24 | 7.85 | 11.8 | 1.08 |  |  |  |  |  |  |  |  |  |  | 
2 | COC1OC(C)C2OC(C)(C)OC2C1OC(C)=O (stereo unspecified) | > 100 | > 100 | > 100 | > 100 | > 100 |  | > 100 |  | > 100 |  |  |  |  |  |  |  |  |  |  | 
3 | CC1=C(C)C2(O)C(=C(C)C1=O)/C(=C(/O)c1ccccc1)c1nc3ccccc3n12 (stereo unspecified) | 44.4 | 38.5 |  | 52 | 44.5 | 42.2 | 46.9 | 32.1 | > 100 | 19.3 | 12.2 | 26.8 | 68.6 | 24.5 | 21.7 | 18.2 | 19.7 | 11.7 | 29.4 | 
4 | O=c1cc(-c2ccccc2)oc2cc(OC/C(=N/O)c3ccc(F)cc3)ccc12 | > 50 | > 50 | 45.8 | > 50 | 26 | > 50 | > 50 | > 50 | > 50 | 20.1 | 23.7 | 18.1 | > 50 | 27.5 | 11.5 | 47.9 | > 50 | > 50 | 48.1 | 15.3
5 | Cn1c(=S)c2[nH]c(SCCN3C(=O)c4ccccc4C3=O)nc2n(C)c1=O | > 100 | > 100 |  | > 100 | > 100 | > 100 | > 100 | > 100 | > 100 |  |  |  | > 100 |  |  |  |  |  |  | 
6 | NC(=S)N=Nc1c(O)c2ccccc2c2ccccc12 | 12.1 | > 71.6 | > 100 | 28.3 | 9.16 | 54.2 | 12.6 | 3.24 | 26.6 | 3.44 | 28.6 | 1.9 | 3.36 | 5.98 | 2.48 | 21.5 | 3.12 | 1.34 | 3.44 | 36.3
7 | Clc1ccccc1C(Nc1ncccn1)Nc1ncccn1 | > 100 |  | > 100 | > 100 | > 100 | > 100 | > 100 | > 100 | > 100 |  |  |  | > 100 |  |  |  |  |  |  | 
8 | Nc1nc(=O)n([C@@H]2CS[C@H](CO)O2)cc1F | > 100 | > 100 | > 100 | > 100 | > 100 | > 100 | > 100 |  | > 100 | > 100 | > 100 | > 100 | > 100 | > 100 | > 100 | > 100 | > 100 |  | > 100 | > 100
9 | COc1cc(-n2ccnc2)cc(OC)c1OC | > 100 | > 100 | > 100 | > 100 | > 100 | > 100 | > 100 |  | > 100 | 95.1 | 47.6 | > 100 | > 100 | 68.1 | > 100 | 80.2 | > 100 |  | > 100 | 99.5
10 | COc1ccc(/C=C\c2cc(OC)c(OC)c(OC)c2)cc1OCC(=O)Nc1ccc2nc(C)sc2c1 |  | > 100 | > 100 | > 100 | 14.6 | 50.4 | > 100 | 7.37 | 31.9 |  | 3.41 | 3.81 | 29.7 | 2.19 | 2.56 | 5.27 | 3.89 | 1.55 | 4.7 | 6.9
11 | COc1cc2c(=O)n(CCN(C)C)c3c4cc5c(cc4ccc3c2cc1OC)OCO5 |  | > 10.9 | 1.36 | > 11.3 | 0.863 | 1.87 | 8.41 | 5.05 | 6.87 |  | 0.146 | 0.199 | 6.27 | 0.186 | 0.181 | 0.275 | 0.198 | 0.23 | 0.239 | 0.53
12 | c1ccc(P(=C2c3ccccc3-c3ccccc32)(c2ccccc2)c2ccccc2)cc1 | 29.6 | 8.34 | 15.3 | 6 | 36.7 | 80.1 | > 100 | 83.8 | 10.4 |  |  |  |  |  |  |  |  |  |  | 
13 | COc1ccc(N(/C=C/C(=O)C(F)(F)F)CC(=O)c2ccc(Cl)cc2)cc1 | 87.8 | 38.1 | 36.2 | 43.1 | 37 | 36.4 | 47.1 |  | 41 | 29.6 | 12.2 | 19.8 | 40.4 | 13.6 | 18.2 | 19.2 | 18.8 |  | 19.2 | 17
14 | COc1ccc(Nc2nc3cc(N)cc(N)c3nc2-c2ccccc2)cc1OC | > 100 |  | 39.6 | 71.2 | 37.5 | 87.5 | > 100 |  | 35.9 | 35.2 |  | 45 | > 100 | 20.2 | 16.2 | 38.2 | 35.4 |  | 15.5 | 18.4
15 | O=C(C/C(CCC(=O)N(Cc1ccccc1)Cc1ccccc1)=N/Nc1ccc([N+](=O)[O-])cc1[N+](=O)[O-])c1ccccc1 | > 100 | > 100 | > 100 | > 100 | > 100 | > 100 | > 100 | > 100 | > 100 |  |  |  |  |  |  |  |  |  |  | 
